Values quoted from earlier work in paper PMC7761982, “FDA-Approved Drugs with Potent In Vitro Antiviral Activity against Severe Acute Respiratory Syndrome Coronavirus 2” (Pharmaceuticals, 2020).
pIC50: −log10 of the molar value.

Tested on: SARS-CoV-2
Conditions: in vitro; read-out: IC50 against SARS-CoV-2 (reported); cited from earlier work

Compound: CC(=O)Oc1ccccc1C(=O)Nc1ncc([N+](=O)[O-])s1 [Nitazoxanide]
- pIC50: 5.67
